One assay has as its target T1, KRasG12C (Homo sapiens, UniProt P01116, G12C).
T1 construct: biotin (biotinylated); made in house
Description: KRasG12C functional assay (HTRF/FRET nucleotide exchange and Raf RBD binding). The assay is classed as biochemical. As to conditions: GDP loaded biotinylated KRasG12C, samples incubated for 4 hrs, FRET readout; single experiment or average of two or more; read-out: KRasG12C functional assay IC50. On the procedure: All enzyme and substrate solutions were prepared in assay buffer containing 20 mM HEPES (pH 7.5), 5 mM MgCl2, 150 mM NaCl, and 0.01% Tween 20. […] In a separate mix 20 nM GST-Raf Ras binding domain (GST-Raf RBD, purified in house) and 4 μg/ml anti-GST XL665 antibody (Cisbio) was prepared in assay buffer containing 50 mM Potassium Fluoride and 0.05 mg/ml BSA and equilibrated for 4 hours before adding 0.6 μM Guanosine 5′-[γ-thio]triphosphate (GTPγS, Sigma) and 0.08 μM SOS (purified in house). 5 μl of the GST-RAF RBD mix was then dispensed into each well of the assay plate. […] This is detected simultaneously via the specific binding interaction between active GTPγS KRas^G12C with GST-Raf RBD which brings the europium and XL665 into close proximity enabling an increased FRET signal to be detected on a Pherastar (BMG) plate reader equipped with the HTRF filter module. […] IC50 values were calculated from normalised dose-response response FRET data curve fitted in Genedata screener (Basel, Switzerland).
T1 sequence (P01116 1-188 isoform P01116-2 G12C): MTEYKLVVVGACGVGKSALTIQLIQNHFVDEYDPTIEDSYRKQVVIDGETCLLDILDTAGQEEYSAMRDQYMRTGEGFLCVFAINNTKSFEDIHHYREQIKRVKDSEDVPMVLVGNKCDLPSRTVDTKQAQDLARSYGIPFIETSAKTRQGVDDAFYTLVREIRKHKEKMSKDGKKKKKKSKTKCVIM
Consider `C=CC(=O)N1CCN2Cc3cc(C#N)c(-c4c(O)cccc4Cl)c(Cl)c3OC[C@H]2C1` (single isomer, unassigned) [Example 57], for which the IC50 amounted to 31 nM. With `C=CC(=O)N1CCN2Cc3c(O)c(Cl)c(-c4c(O)cccc4F)c(Cl)c3OC[C@H]2C1` (single isomer, unassigned) [Example 13], the IC50 is 66 nM. With `C=CC(=O)N1CCN2Cc3cc(OCCN4CCCCC4)c(-c4c(O)cccc4Cl)c(F)c3OC[C@H]2C1` (single isomer, unassigned) [Example 108], the IC50 came out at 64 nM.

For the compound `C=CC(=O)N1CCN2Cc3cc(C#N)c(-c4c(O)cccc4F)c(Cl)c3OC[C@H]2C1` (single isomer, unassigned) [Example 22], the 50% inhibitory concentration (IC50) stood at 2580 nM. In the case of `C=CC(=O)N1CCN2Cc3cc(F)c(-c4c(O)cccc4CC)c(F)c3OC[C@H]2C1` (single isomer, unassigned) [Example 50], the 50% inhibitory concentration (IC50) is 99300 nM.

As to `C=CC(=O)N1CCN2Cc3cc(C#N)c(-c4c(C)cccc4O)c(Cl)c3OC[C@H]2C1` (single isomer, unassigned) [Example 41], the concentration for half-maximal inhibition (IC50) is 180 nM. On to `C=CC(=O)N1CCN2Cc3c(C#CC)nc(-c4c(O)cccc4Cl)c(Cl)c3OC[C@H]2C1` (single isomer, unassigned) [Example 118], for which the IC50 stood at 30 nM.

As for `C=CC(=O)N1CCN2Cc3cc(OC(F)F)c(-c4c(O)cccc4Cl)c(Cl)c3OC[C@H]2C1` (single isomer, unassigned) [Example 98], the IC50 was 11 nM. Take `C#Cc1c2c(cc(F)c1-c1c(C)cccc1O)CN1CCN(C(=O)C=C)C[C@@H]1CO2` (single isomer, unassigned) [Example 64]: the IC50 was 37100 nM. For `C=CC(=O)N1CCN2Cc3cc(F)c(-c4c(O)ccc(F)c4F)c(Cl)c3OC[C@H]2C1` (single isomer, unassigned) [Example 38], the half-maximal inhibitory concentration (IC50) stood at 40100 nM. For `C=CC(=O)N1CCN2C(=O)c3cc(F)c(-c4c(O)cccc4F)c(Cl)c3OC[C@H]2C1` (single isomer, unassigned) [Example 12], the half-inhibitory concentration (IC50) is 25200 nM.

For `C=CC(=O)N1CCN2C(=O)c3ccc(-c4c(C)ccc5[nH]ncc45)c(Cl)c3NC[C@H]2C1` (single isomer, unassigned) [Example 33], the concentration for half-maximal inhibition (IC50) is 998 nM.

On to `C=CC(=O)N1CCN2Cc3c(c(Cl)c(-c4c(O)cccc4F)c4cnn(C)c34)OC[C@H]2C1` (single isomer, unassigned) [Example 73], for which the concentration for half-maximal inhibition (IC50) is 23000 nM. Same read-out and setting: the value for `C=CC(=O)N1CCN2C(=O)c3ccc(-c4c(C)ccc5[nH]ncc45)c(Cl)c3NC[C@H]2C1` (single isomer, unassigned) [Example 32] was 64800 nM. As to `C=CC(=O)N1CCN2Cc3c(c(Cl)c(-c4c(O)cccc4F)n(C)c3=O)OC[C@H]2C1` (single isomer, unassigned) [Example 66], the IC50 was found to be 21000 nM. Turning to `C#Cc1c2c(cc(Cl)c1-c1c(C)cccc1O)CN1CCN(C(=O)C=C)C[C@@H]1CO2` (single isomer, unassigned) [Example 62], the half-inhibitory concentration (IC50) worked out at 15700 nM. With `C=CC(=O)N1CCN2Cc3c(C#N)cc(-c4c(O)cccc4F)c(Cl)c3OC[C@H]2C1` [Example 16, (12aR)-10-Chloro-9-(2-fluoro-6-hydroxyphenyl)-2-(prop-2-enoyl)-1,2,3,4,12,12a-hexahydro-6H-pyrazino[2,1-c][1,4]benzoxazepine-7-carbonitrile], the IC50 came to 430 nM. Consider `C=CC(=O)N1CCN2Cc3cc(OC)c(-c4c(O)cccc4F)c(Cl)c3OC[C@H]2C1` (single isomer, unassigned) [Example 31], for which the IC50 turned out to be 279 nM.

As for `C=CC(=O)N1CCN2Cc3c(c(Cl)c(-c4c(O)cccc4F)n4cnnc34)OC[C@H]2C1` (single isomer, unassigned) [Example 71], the IC50 amounted to 539 nM.

As for `C=CC(=O)N1CCN2Cc3cc(F)c(-c4c(C)ccc5cc[nH]c(=O)c45)c(Cl)c3OC[C@H]2C1` (single isomer, unassigned) [Example 29], the half-maximal inhibitory concentration (IC50) came out at 164 nM. `C=CC(=O)N1CCN2Cc3c(OCCN(C)C)cc(-c4c(O)cccc4Cl)c(F)c3OC[C@H]2C1` (single isomer, unassigned) [Example 115]: the concentration for half-maximal inhibition (IC50) was 55 nM. Still for that read-out and setting: the value for `C=CC(=O)N1CCN2Cc3c(c(Cl)c(-c4c(O)cccc4F)c4cn(C)nc34)OC[C@H]2C1` (single isomer, unassigned) [Example 74] was 135 nM; that for `C=CC(=O)N1CCN2Cc3cc(C#N)c(-c4c(O)cccc4F)c(Cl)c3OC[C@H]2C1` (single isomer, unassigned) [Example 23] was 105 nM; that for `C=CC(=O)N1CCN2Cc3c(-n4cccn4)cc(-c4c(O)cccc4F)c(Cl)c3OC[C@H]2C1` [Example 17, 1-[(12aR)-10-Chloro-9-(2-fluoro-6-hydroxyphenyl)-7-(1H-pyrazol-1-yl)-3,4,12,12a-tetrahydro-6H-pyrazino[2,1-c][1,4]benzoxazepin-2(1H)-yl]prop-2-en-1-one] was 361 nM. Turning to `C=CC(=O)N1CCN2Cc3c(c(Cl)c(-c4c(O)cccc4F)c4cn(C)nc34)OC[C@H]2C1` (single isomer, unassigned) [Example 75], the concentration for half-maximal inhibition (IC50) stood at 50800 nM. For the compound `C=CC(=O)N1CCN2Cc3c(OCCN(C)C)cc(-c4c(O)cccc4Cl)c(F)c3OC[C@H]2C1` (single isomer, unassigned) [Example 116], the IC50 was 53 nM.

On to `C=CC(=O)N1CCN2Cc3cc(C#N)c(-c4c(C)cccc4O)c(Cl)c3OC[C@H]2C1` (single isomer, unassigned) [Example 40], for which the IC50 is 4620 nM. Turning to `C=CC(=O)N1CCN2Cc3cc(C#CCN(C)C)c(-c4c(O)cccc4Cl)c(F)c3OC[C@H]2C1` (single isomer, unassigned) [Example 102], the IC50 amounted to 28 nM.

With `C=CC(=O)N1CCN2C(=O)c3cc(Cl)c(-c4c(O)cccc4F)c(Cl)c3OC[C@H]2C1` (single isomer, unassigned) [Example 21], the concentration for half-maximal inhibition (IC50) is 12900 nM. On to `C=CC(=O)N1CCN2Cc3c(c(Cl)c(-c4c(O)cccc4F)n(C)c3=O)OC[C@H]2C1` (single isomer, unassigned) [Example 67], for which the IC50 turned out to be 810 nM.

With `C=CC(=O)N1CCN2Cc3c(c(Cl)c(-c4c(O)cccc4F)c4cnn(C)c34)OC[C@H]2C1` (single isomer, unassigned) [Example 72], the 50% inhibitory concentration (IC50) worked out at 133 nM.

With `C=CC(=O)N1CCN2Cc3c(c(Cl)c(-c4c(O)cccc4F)n4cnnc34)OC[C@H]2C1` (single isomer, unassigned) [Example 70], the IC50 came out at 19000 nM. For the compound `C=CC(=O)N1CCN2Cc3cc(C#N)c(-c4c(O)cccc4Cl)c(Cl)c3OC[C@H]2C1` (single isomer, unassigned) [Example 56], the 50% inhibitory concentration (IC50) worked out at 1700 nM.

For `C=CC(=O)N1CCN2C(=O)c3cc(Cl)c(-c4c(O)cccc4F)c(Cl)c3OC[C@H]2C1` (single isomer, unassigned) [Example 20], the IC50 stood at 43 nM. Consider `C=CC(=O)N1CCN2C(=O)c3cc(C)c(-c4c(O)cccc4F)c(Cl)c3OC[C@H]2C1` (single isomer, unassigned) [Example 24], for which the IC50 was 43800 nM. Turning to `C=CC(=O)N1CCN2Cc3cc(F)c(-c4c(O)cccc4CC)c(F)c3OC[C@H]2C1` (single isomer, unassigned) [Example 51], the IC50 worked out at 542 nM. Turning to `C=CC(=O)N1CCN2Cc3cc(F)c(-c4c(C)ccc5[nH]cnc45)c(Cl)c3OC[C@H]2C1` (single isomer, unassigned) [Example 18], the IC50 is 28700 nM. Consider `C#Cc1nc2c(c(Cl)c1-c1c(O)cccc1Cl)OC[C@@H]1CN(C(=O)C=C)CCN1C2` (single isomer, unassigned) [Example 88], for which the IC50 was 13 nM. In the case of `C=CC(=O)N1CCN2Cc3c(Cl)nc(-c4c(O)cccc4F)c(Cl)c3OC[C@H]2C1` [Example 68, 1-[(6aR)-1,4-Dichloro-3-(2-fluoro-6-hydroxyphenyl)-6a,7,9,10-tetrahydro-12H-pyrazino[2,1-c]pyrido[3,4-f][1,4]oxazepin-8(6H)-yl]prop-2-en-1-one], the IC50 was determined as 790 nM. For `C=CC(=O)N1CCN2Cc3c(-n4ccnc4)cc(-c4c(O)cccc4F)c(Cl)c3OC[C@H]2C1` [Example 15, 1-[(12aR)-10-Chloro-9-(2-fluoro-6-hydroxyphenyl)-7-(1H-imidazol-1-yl)-3,4,12,12a-tetrahydro-6H-pyrazino[2,1-c][1,4]benzoxazepin-2(1H)-yl]prop-2-en-1-one], the IC50 came out at 1280 nM.

Staying with this assay, now noted: KRasG12C functional assay IC50, GDP loaded biotinylated KRasG12C, samples incubated for 4 hrs, FRET readout; single experiment or average of two or more.
On to `C=CC(=O)N1CCN2Cc3cc(OC4CC4)c(-c4c(O)cccc4Cl)c(F)c3OC[C@H]2C1` (single isomer, unassigned) [Example 100], for which the IC50 turned out to be 80 nM. Consider `C#Cc1cc2c(c(F)c1-c1c(O)cccc1Cl)OC[C@H]1CN(C(=O)C=C)CCN1C2` (single isomer, unassigned) [Example 77], for which the IC50 worked out at 937 nM. On the same count and under the same terms, the value for `C=CC(=O)N1CCN2Cc3cc(C#N)c(-c4c(O)cccc4Cl)c(F)c3OC[C@H]2C1` (single isomer, unassigned) [Example 54] was 339 nM; that for `C=CC(=O)N1CCN2C(=O)c3ccc(-c4c(C)ccc5[nH]ncc45)c(Cl)c3OC[C@@H]2C1` (single isomer, unassigned) [Example 2] was 4500 nM; that for `C=CC(=O)N1CCN2C(=O)c3ccc(-c4c(C)ccc5[nH]ncc45)c(Cl)c3OC[C@@H]2C1` (single isomer, unassigned) [Example 1] was 73000 nM.

Source of the values: patent US12410187B2, “Fused tricyclic compounds useful as anticancer agents” (ASTRAZENECA AB, priority 2019, dated 2025).
